Reference: patent US11230526B1, “Cylcoalkenyl derivatives useful as agonists of the GPR120 and/or GPR40 receptors” (Janssen Pharmaceutica NV, priority 2018, dated 2022)

What was measured:
human GPR40 = target: T1, human GPR40 (Homo sapiens, UniProt O14842); experiment: GPR40 calcium flux assay, human GPR40; type: cell-based; settings: HEK293 cells stably expressing GPR40; table does not say human or rat
T1 construct: expressed in transfected cells
Procedure, shortened: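 Cells preincubated 1 h at 37° C. in HBSS, 20 mM HEPES, 0.1% BSA, then Fluo 8 calcium dye 30 min at 37° C. and 15 min at room temperature.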

Human GPR120 short form = target: T2, Human GPR120 short form (Homo sapiens, UniProt Q5NUL3); experiment: Human GPR120 calcium flux assay, Procedure Calcium B (4200 cells/well); type: cell-based
T2 construct: expressed in transfected cells
T2 sequence (Q5NUL3 1-361): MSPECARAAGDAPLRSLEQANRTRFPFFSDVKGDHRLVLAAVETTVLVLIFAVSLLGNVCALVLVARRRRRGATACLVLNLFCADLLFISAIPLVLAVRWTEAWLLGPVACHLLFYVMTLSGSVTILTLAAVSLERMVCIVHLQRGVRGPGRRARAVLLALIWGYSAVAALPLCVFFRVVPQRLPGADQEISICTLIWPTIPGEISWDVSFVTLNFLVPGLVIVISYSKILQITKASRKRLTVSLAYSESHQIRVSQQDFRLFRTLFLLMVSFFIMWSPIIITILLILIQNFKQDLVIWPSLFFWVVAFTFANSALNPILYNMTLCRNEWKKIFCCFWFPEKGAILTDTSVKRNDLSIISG
Procedure, shortened: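 HEK293 cells stably expressing human GPR120 (NM_001195755.1), 4200 cells/well, starved 1 h and loaded with Fluo-4 NW plus probenecid. Ligand-evoked calcium flux read on FLIPR for 300 s after a 10 s baseline. RFU = Fmax−Fmin; EC50 from four-parameter concentration-response fit.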

T1 sequence (O14842 whole entry): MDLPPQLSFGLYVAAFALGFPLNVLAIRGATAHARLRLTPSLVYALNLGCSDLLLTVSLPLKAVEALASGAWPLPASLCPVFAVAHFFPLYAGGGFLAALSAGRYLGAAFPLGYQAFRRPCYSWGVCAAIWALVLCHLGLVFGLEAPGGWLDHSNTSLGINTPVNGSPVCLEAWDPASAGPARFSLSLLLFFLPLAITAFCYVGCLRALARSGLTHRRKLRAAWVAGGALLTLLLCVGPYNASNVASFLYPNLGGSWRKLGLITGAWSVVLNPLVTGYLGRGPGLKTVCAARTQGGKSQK

Cc1cc(OCC2=C(C3CCCC3)CC(F)(F)C2)ccc1CCC(=O)O [Compound 441, 3-[4-[(2-cyclopentyl-4,4-difluoro-cyclopenten-1-yl)methoxy]-2-methyl-phenyl]Propanoic Acid]
EC50 (human GPR40): 35 nM
EC50 (Human GPR120 short form): 100 nM

C=Cc1cc(OCC2=C(C3CCCC3)CCC2)ccc1CCC(=O)O [Compound 442, 3-[4-[(2-cyclopentylcyclopenten-1-yl)methoxy]-2-vinyl-phenyl]Propanoic Acid]
EC50 (human GPR40): 48 nM
EC50 (Human GPR120 short form): 334 nM

CC(O)c1cc(OCC2=C(C3CCCC3)CCC2)ccc1CCC(=O)O (stereo not shown) [Compound 443, 3-[4-[(2-cyclopentylcyclopenten-1-yl)methoxy]-2-(1-hydroxyethyl)phenyl]Propanoic Acid]
EC50 (human GPR40): 1580 nM
EC50 (Human GPR120 short form): > 5000 nM

O=C(O)CCc1ccc(OCC2=C(C3CCCC3)CCC2)cc1C1CC1 [Compound 444, 3-[4-[(2-cyclopentylcyclopenten-1-yl)methoxy]-2-cyclopropyl-phenyl]Propanoic Acid]
EC50 (human GPR40): 174 nM
EC50 (Human GPR120 short form): 319 nM

O=C(O)CCc1ccc(OCC2=C(Cc3nccs3)CCC2)cc1Cl [Compound 445, 3-[2-chloro-4-[[2-(thiazol-2-ylmethyl)cyclopenten-1-yl]methoxy]phenyl]Propanoic Acid]
EC50 (human GPR40): 266 nM
EC50 (Human GPR120 short form): 3540 nM

O=C(O)CCc1ccc(OCC2=C(C3CCCC3)CCC2)cc1C(F)(F)C(F)(F)F [Compound 446, 3-[4-[(2-cyclopentylcyclopenten-1-yl)methoxy]-2-(1,1,2,2,2-pentafluoroethyl)phenyl]Propanoic Acid]
EC50 (human GPR40): 458 nM
EC50 (Human GPR120 short form): 828 nM

C=C(Br)c1cc(OCC2=C(C3CCCC3)CCC2)ccc1CCC(=O)O [Compound 448, 3-[2-(1-bromovinyl)-4-[(2-cyclopentylcyclopenten-1-yl)methoxy]phenyl]Propanoic Acid]
EC50 (human GPR40): 2040 nM
EC50 (Human GPR120 short form): > 5000 nM

O=C(O)CCc1cc(F)c(OCC2=C(C3CCCC3)CCC2)cc1Cl [Compound 450, 3-[2-chloro-4-[(2-cyclopentylcyclopenten-1-yl)methoxy]-5-fluoro-phenyl]Propanoic Acid]
EC50 (human GPR40): 118 nM
EC50 (Human GPR120 short form): 273 nM

O=C(O)CCc1ccc(OCC2=C(C3C=CCC3)CCC2)cc1Cl (stereo not shown) [Compound 451, 3-[2-chloro-4-[(2-cyclopent-2-en-1-ylcyclopenten-1-yl)methoxy]phenyl]Propanoic Acid]
EC50 (human GPR40): 32 nM
EC50 (Human GPR120 short form): 249 nM

O=C(O)CCc1ccc(OCC2=C(C3C=CCC3)CCC2)cc1 (stereo not shown) [Compound 452, 3-[4-[(2-cyclopent-2-en-1-ylcyclopenten-1-yl)methoxy]phenyl]Propanoic Acid]
EC50 (human GPR40): 170 nM
EC50 (Human GPR120 short form): 127 nM

O=C(O)CCc1ccc(OCC2=C(C3C=CCC3)CCC2)cc1C(F)(F)F (stereo not shown) [Compound 453, 3-[4-[(2-cyclopent-2-en-1-ylcyclopenten-1-yl)methoxy]-2-(trifluoromethyl)phenyl]Propanoic Acid]
EC50 (human GPR40): 10 nM
EC50 (Human GPR120 short form): 181 nM

C#Cc1cc(OCC2=C(C3CCCC3)CCC2)ccc1CCC(=O)O [Compound 454, 3-[4-[(2-cyclopentylcyclopenten-1-yl)methoxy]-2-ethynyl-phenyl]Propanoic Acid]
EC50 (human GPR40): 513 nM
EC50 (Human GPR120 short form): 2250 nM

O=C(O)CCc1ccc(OCC2=C(C3CCC4CC43)CCC2)cc1 (stereo not shown) [Compound 455, 3-[4-[[2-(4-bicyclo[3.1.0]hexanyl)cyclopenten-1-yl]methoxy]phenyl]Propanoic Acid]
EC50 (human GPR40): 403 nM
EC50 (Human GPR120 short form): 340 nM

O=C(O)CCc1ccc(OCC2=C(C3CCC4CC43)CCC2)cc1C(F)(F)F (stereo not shown) [Compound 456, 3-[4-[[2-(4-bicyclo[3.1.0]hexanyl)cyclopenten-1-yl]methoxy]-2-(trifluoromethyl)phenyl]Propanoic Acid]
EC50 (human GPR40): 42 nM
EC50 (Human GPR120 short form): 924 nM

O=C(O)CCc1ccc(OCC2=C(C3CCCC3)CC(F)(F)C2)cc1F [Compound 457, 3-[4-[(2-cyclopentyl-4,4-difluoro-cyclopenten-1-yl)methoxy]-2-fluoro-phenyl]Propanoic Acid]
EC50 (human GPR40): 46 nM
EC50 (Human GPR120 short form): 126 nM

CCC1CCCC(COc2ccc(CCC(=O)O)c(C)c2C)=C1c1ccc(Cl)cc1 (stereo not shown) [Compound 478, 3-[4-[[2-(4-chlorophenyl)-3-ethyl-cyclohexen-1-yl]methoxy]-2,3-dimethyl-phenyl]Propanoic Acid]
EC50 (human GPR40): > 5000 nM
EC50 (Human GPR120 short form): > 5000 nM

Cc1c(CCC(=O)O)ccc(OCC2=C(c3ccc(Cl)cc3)CC(C(C)C)CC2)c1C (stereo not shown) [Compound 500, 3-[4-[[2-(4-chlorophenyl)-4-isopropyl-cyclohexen-1-yl]methoxy]-2,3-dimethyl-phenyl]Propanoic Acid]
EC50 (human GPR40): > 5000 nM
EC50 (Human GPR120 short form): 1530 nM

Cc1c(CCC(=O)O)ccc(OCC2=C(c3ccc(Cl)cc3)C(C(C)C)CCC2)c1C (stereo not shown) [Compound 523, 3-[4-[[2-(4-chlorophenyl)-3-isopropyl-cyclohexen-1-yl]methoxy]-2,3-dimethyl-phenyl]Propanoic Acid]
EC50 (human GPR40): > 5000 nM
EC50 (Human GPR120 short form): > 5000 nM

Cc1c(CCC(=O)O)ccc(OCC2=C(c3ccc(Cl)cc3)CCC(C)(C)C2)c1C [Compound 541, 3-[4-[[2-(4-chlorophenyl)-5,5-dimethyl-cyclohexen-1-yl]methoxy]-2,3-dimethyl-phenyl]Propanoic Acid]
EC50 (human GPR40): 4760 nM
EC50 (Human GPR120 short form): 1500 nM

Cn1cc(C2=C(COc3c(F)cc(CCC(=O)O)cc3F)CC(F)(F)CC2)cn1 [Compound 544]
EC50 (human GPR40): > 5000 nM
EC50 (Human GPR120 short form): 1350 nM

COC1CCC(c2ccc(C)cc2)=C(COc2ccc(CCC(=O)O)cc2)C1 (stereo not shown) [Compound 574, 3-[4-[[5-methoxy-2-(p-tolyl)cyclohexen-1-yl]methoxy]phenyl]Propanoic Acid]
EC50 (human GPR40): 4410 nM
EC50 (Human GPR120 short form): 2130 nM

COC1CCC(c2ccccc2C)=C(COc2ccc(CCC(=O)O)cc2)C1 (stereo not shown) [Compound 575, 3-[4-[[5-methoxy-2-(o-tolyl)cyclohexen-1-yl]methoxy]phenyl]Propanoic Acid]
EC50 (human GPR40): > 5000 nM
EC50 (Human GPR120 short form): > 5000 nM

COC1CCC(c2ccccc2C)=C(COc2ccc(CCC(=O)O)c(C(F)(F)F)c2)C1 (stereo not shown) [Compound 576, 3-[4-[[5-methoxy-2-(o-tolyl)cyclohexen-1-yl]methoxy]-2-(trifluoromethyl)phenyl]Propanoic Acid]
EC50 (human GPR40): 1570 nM
EC50 (Human GPR120 short form): > 5000 nM

COC1CCC(c2ccc(C)cc2)=C(COc2ccc(CCC(=O)O)c(C(F)(F)F)c2)C1 (stereo not shown) [Compound 577, 3-[4-[[5-methoxy-2-(p-tolyl)cyclohexen-1-yl]methoxy]-2-(trifluoromethyl)phenyl]Propanoic Acid]
EC50 (human GPR40): 3010 nM
EC50 (Human GPR120 short form): 1100 nM

CC(C)CC1=C(COc2ccc(CCC(=O)O)cc2)CCCC1 [Compound 578, 3-[4-[(2-isobutylcyclohexen-1-yl)methoxy]phenyl]Propanoic Acid]
EC50 (human GPR40): 2140 nM
EC50 (Human GPR120 short form): 1780 nM

CC(C)CC1=C(COc2ccc(CCC(=O)O)c(C(F)(F)F)c2)CCCC1 [Compound 579, 3-[4-[(2-isobutylcyclohexen-1-yl)methoxy]-2-(trifluoromethyl)phenyl]Propanoic Acid]
EC50 (human GPR40): 75 nM
EC50 (Human GPR120 short form): 585 nM

CC(C)CC1=C(COc2ccc(CCC(=O)O)c(Cl)c2)CCCC1 [Compound 580, 3-[2-chloro-4-[(2-isobutylcyclohexen-1-yl)methoxy]phenyl]Propanoic Acid]
EC50 (human GPR40): 202 nM
EC50 (Human GPR120 short form): 1330 nM

O=C(O)CCc1ccc(OCC2=C(Cc3ccccc3)CCCC2)cc1 [Compound 581, 3-[4-[(2-benzylcyclohexen-1-yl)methoxy]phenyl]Propanoic Acid]
EC50 (human GPR40): 591 nM
EC50 (Human GPR120 short form): 2110 nM

O=C(O)CCc1ccc(OCC2=C(Cc3ccccc3)CCCC2)cc1Cl [Compound 582, 3-[4-[(2-benzylcyclohexen-1-yl)methoxy]-2-chloro-phenyl]Propanoic Acid]
EC50 (human GPR40): 77 nM
EC50 (Human GPR120 short form): 1210 nM

CCCCC1=C(COc2ccc(CCC(=O)O)c(Cl)c2)CCCC1 [Compound 583, 3-[4-[(2-butylcyclohexen-1-yl)methoxy]-2-chloro-phenyl]Propanoic Acid]
EC50 (human GPR40): 294 nM
EC50 (Human GPR120 short form): 765 nM

O=C(O)CCc1ccc(OCC2=C(Cc3ccccc3)CCCC2)cc1C(F)(F)F [Compound 584, 3-[4-[(2-benzylcyclohexen-1-yl)methoxy]-2-(trifluoromethyl)phenyl]Propanoic Acid]
EC50 (human GPR40): 91 nM
EC50 (Human GPR120 short form): 756 nM

CC(C)C1=C(COc2ccc(CCC(=O)O)cc2)CCCC1 [Compound 585, 3-[4-[(2-isopropylcyclohexen-1-yl)methoxy]phenyl]Propanoic Acid]
EC50 (human GPR40): 2420 nM
EC50 (Human GPR120 short form): 1650 nM

CC(C)C1=C(COc2ccc(CCC(=O)O)c(C(F)(F)F)c2)CCCC1 [Compound 586, 3-[4-[(2-isopropylcyclohexen-1-yl)methoxy]-2-(trifluoromethyl)phenyl]Propanoic Acid]
EC50 (human GPR40): 52 nM
EC50 (Human GPR120 short form): 908 nM

CC(C)C1=C(COc2ccc(CCC(=O)O)c(Cl)c2)CCCC1 [Compound 587, 3-[2-chloro-4-[(2-isopropylcyclohexen-1-yl)methoxy]phenyl]Propanoic Acid]
EC50 (human GPR40): 99 nM
EC50 (Human GPR120 short form): 1140 nM

CCCCC1=C(COc2ccc(CCC(=O)O)cc2)CCCC1 [Compound 588, 3-[4-[(2-butylcyclohexen-1-yl)methoxy]phenyl]Propanoic Acid]
EC50 (human GPR40): 1920 nM
EC50 (Human GPR120 short form): 1140 nM
